According to doi:10.1101/141937v1 (biorxiv, 2017):

Target: T1, EmrE (Escherichia coli, UniProt P23895)
T1 sequence (P23895 1-110): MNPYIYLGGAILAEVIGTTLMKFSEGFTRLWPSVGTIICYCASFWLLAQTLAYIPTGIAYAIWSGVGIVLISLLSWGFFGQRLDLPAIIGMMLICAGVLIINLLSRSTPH
Assay: biochemical

In the case of `c1ccc([P+](c2ccccc2)(c2ccccc2)c2ccccc2)cc1` [TPP^+], the Kd is reported as 70 ± 9 µM.
